Test results published in publication PMC11898290, “TFEB promotes Ginkgetin-induced ferroptosis via TRIM25 mediated GPX4 lysosomal degradation in EGFR wide-type lung adenocarcinoma” (Theranostics, 2025).

Tests used:
[1] = target: T1, TFEB (Homo sapiens, UniProt P19484); test: SPR, Biacore S200, CM5 chip, steady-state fit; assay type: binding; conditions: 10 mM HEPES pH 7.4, 150 mM NaCl, 0.05% P20, 2% DMSO, 25 °C; GK 0.137-100 µM
T1 construct: TFEB protein amine-coupled on CM5 chip (about 6500 RU)
T1 sequence (P19484 1-476): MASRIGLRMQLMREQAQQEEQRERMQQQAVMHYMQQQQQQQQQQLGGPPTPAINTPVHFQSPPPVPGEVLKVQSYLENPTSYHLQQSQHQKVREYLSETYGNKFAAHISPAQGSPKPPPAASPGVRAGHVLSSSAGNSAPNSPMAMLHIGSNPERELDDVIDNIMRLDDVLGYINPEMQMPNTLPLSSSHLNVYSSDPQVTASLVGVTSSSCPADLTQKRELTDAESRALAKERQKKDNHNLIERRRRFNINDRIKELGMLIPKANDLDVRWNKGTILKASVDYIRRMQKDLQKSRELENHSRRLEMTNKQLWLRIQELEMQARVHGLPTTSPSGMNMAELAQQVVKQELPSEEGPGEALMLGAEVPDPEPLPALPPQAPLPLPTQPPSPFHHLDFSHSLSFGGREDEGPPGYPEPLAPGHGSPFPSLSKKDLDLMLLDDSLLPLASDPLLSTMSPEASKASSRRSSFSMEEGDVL

[2] = target: T2, TFEB-GFP (pcDNA3.1-TFEB-GFP) (Homo sapiens, UniProt P19484); test: microscale thermophoresis, GFP-fusion in cell lysate; assay type: binding
T2 sequence (P19484 1-476): T1 sequence (P19484 1-476)

Kd [2]: 28 µM
Compound: COc1cc(O)c2c(=O)cc(-c3ccc(OC)c(-c4c(O)cc(O)c5c(=O)cc(-c6ccc(O)cc6)oc45)c3)oc2c1 [ginkgetin]
Kd [1]: The binding affinity of GK to TFEB was determined by the SPR assay.
